Assay results as given in US5691348A, “Pyridyl imidazole derivatives and processes for the preparation thereof” (Daewoo Electronics Co., Ltd., priority 1994, dated 1997).

Assays:
[1] = tested on: renal hypertensive rat; experiment: Blood pressure lowering effect with respect to dose (renal hypertensive rats); assay type: in vivo, Sprague-Dawley rat; settings: oral
Excerpt: (§1) To induce renal hypertension, left renal artery of 4 week-old male Sprague-Dawley rat (from The Korea Research Institute of Chemical Technology) was ligated. The rat was anesthetized with ether and the surgical region on the left abdomen of the rat was shaved, disinfected, and then incised about 1 cm vertically. The renal artery near abdominal aorta was isolated carefully from surrounding tissues and veins, and then ligated completely with a suture (4/0 sterile surgical silk). The muscular strata and skin of the surgical area were sutured with a suture (4/0 sterile surgical silk). The surgical region was disinfected to prevent infection and thereafter, 200 to 250 mg/kg/day of cephazolin sodium was injected intramuscularly for 2 days. 6 to 8 days after the ligation, rats showing systolic pressure of more than 180 mmHg were selected for renal hypertension test. The blood pressure was determined by a tail-cuff method from the tail under unanesthetized condition (Gerold, M. et al., Arzneimittel-Forsch., 18, 1285(1968)).
(§2) Each of the compounds to be tested was administered intravenously or orally into the renal hypertensive rat. The blood pressure of the rat was determined by direct method (Chiu, A. T. et al., J. Pharmacol. Exp. Ther., 250, 867(1989)) using a catheter. The rat was anesthetized with ketamine hydrochloride (125 mg/kg, i.p.) and a catheter was filled with saline and inserted into a carotid artery and […]. The surgical area was sutured with a metal clip. The rat was relaxed at least 3 hours and the catheter in the carotid artery was adapted to an isotec pressure transducer to determine the blood pressure and heart rate with a physiograph (Linearcorder WR3310). After the blood pressure was stabilized, the test compound was administered intravenously or orally. For intravenous administration, the administered volume and washing volume were 1.0 ml/kg and 0.2 ml, respectively. The blood pressure and heart rate were measured in regular intervals up to 24 hours after the administration of the test compound and compared with those measured after the administration of the control compound Losartan.
(§3) The test compound was dissolved in 0.05N KOH for intravenous administration and suspended in Tween 80 for oral administration.
The present compounds, Losartan(Dup 753) and the Merck compound were administrated orally to rats in 10, 3 and 1 mg/kg under the same condition as in (ii) and the blood pressure lowering effect was determined.

[2] = Metabolite analysis: enzyme digestion test with rat liver microsome, HPLC; assay type: in vitro ADME; settings: 100 μM, 1 hour at 37° C.; for metabolite from the enzymatic digestion: rat liver microsome, HPLC (FIG. 1)
Experimental: Enzyme digestion test was executed in order to detect the metabolite of the test compound in vivo.
500 μg of NADP^+, 11 U of glucose-6-phosphate dehydrogenase and 200 μg of rat liver microsome were added to 1 ml of 0.1M phosphate buffer (pH 7.4), and to the resulting solution was added glucose-6-phosphate to a concentration of 10 mM. The resultant was incubated for 1 minute at 37° C. and added with each of the present compound (Example 3) and the Merck compound to a concentration of 100 μM. The mixture was incubated for 1 hour at 37° C., and then was added with 2 ml of dichloromethan to cease the reaction. The resultant was extracted with dichloromethan and the extract was evaporated to obtain a residue. The reside was analyzed using HPLC after dissolving in a mobile phase of the HPLC.
Column: Nucleosil phenyl column (0.46×25 cm, 5 μM)
Mobile phase: acetonitrile (50 mM, pH 5.0; 35:65, v/v)
FIG. 1 is a HPLC chart showing the result of the enzyme digestion test of the Merck compound and the compound of Example 3.

[3] = tested on: unanesthetized dogs; experiment: Blood pressure variation with time in unanesthetized dogs; assay type: in vivo, dog; settings: 1.0 mg, oral
Experimental: (§4) A number of dog was fed freely in a feeding room and those weighing 7 to 12 kg in good health were selected regardless of their gender.
(§5) The test dog was anesthetized with 30 mg/kg of pentobarbital sodium by intravenous injection and the left femoral artery and femoral vein were separated carefully. Silicone catheter, specially prepared and filled with saline treated with heparin (1,000 IU/ml), was cannulated into the blood vessels. After the surgery, the dog was constrained to measure the blood pressure continuously with Gould 2000 physiograph adapted to a Grass P23XL pressure transducer; and the heart rate was monitored with ECG/Biotacho amplifier. The dog was tested at least 2 days after the surgery.
(§6) 10 mg/kg of furosemide was injected intramuscularly 18 hours (in case of intravenous injection, 2 hours) before the beginning of the test (administration of the test compound) to improve the activity of renin in blood plasma. After the injection of furosemide, neither food nor water was provided. […] The blood pressure and heart rate were measured up to 8 hours after the administration of each test compound.

[4] = tested on: angiotensin II receptor; experiment: Angiotensin II receptor binding assay ([3H] angiotensin II); parameters: species or system rat (Sprague-Dawley adrenal cortex/medulla; Wistar liver); settings: 25° C., 60 minutes, test concentration not given
Experimental: 1. Angiotensin II receptor binding assay
In accordance with the procedure disclosed in Chiu, A. T. et al., Eur. J. Pharm., 157, 13(1981), a ligand marked with a radioisotope was reacted with an angiotensin II receptor and the reactant was filtered with a glass fiber to remove unreacted ligand. After washing the filter, the amount of the remaining isotope was measured to determine the binding activity of the ligand, as described below in detail.
Sprague-Dawley rats and Wistar rats of 250 to 350 g (from The Korea Research Institute of Chemical Technology) were tested and the test procedures were carried out at 4° C., unless otherwise specified. Adrenal gland was separated from the Sprague-Dawley rats (liver, in the case of Wistar rats) into cortex and medulla. The separated adrenal cortex and medulla were washed with a sucrose buffer solution (0.2M sucrose, 1 mM EDTA, 10 mM Tris, Ph 7.2) and homogenized in the same buffer solution by using a Teflon pestle and a Brinkmann homogenizer. The homogenates were centrifuged at 3,000× g for 10 minutes to remove precipitates and further centrifuged at 12,000× g for 13 minutes. The final supernatants were centrifuged at 102,000× g for 1 hour to obtain precipitates, which were washed with a Tris buffer solution (50 mM Tris, 5 mM MgCl2, pH 7.2) and recentrifuged at 102,000× g for 1 hour. The resulting precipitates were immediately processed at the following step or stored at -70° C.
The precipitates were suspended in a Tris buffer solution. The amount of protein was determined by using a Bio-Rad DC protein analyzing kit and the protein concentration was adjusted to the amounts of: 0.2 to 0.3 mg/ml (Sprague-Dawley rat: adrenal cortex), 1.5 to 2.0 mg/ml (Sprague-Dawley rat: adrenal medulla), and 1.5 to 2.0 mg/ml (Wistar rat: liver). To the suspension, bovine serum albumin(BSA) was added to a concentration of 0.25 wt % and the resultant was immediately processed at the following step or stored at -70° C.
50 μl (based on ligand) of [^3 H] angiotensin II (NEN, NET-446) and 10 μl of each of the test compounds with various concentrations were added to the buffer solution (50 mM Tris (pH 7.2), 5 mM MgCl2, 0.25% BSA) to adjust the final volume to be 0.5 ml. 100 μl of the receptor suspension was added thereto and the resulting solution was reacted for 60 minutes while stirring in a water bath at 25° C. 3 ml of cold buffer solution for analysis was added to cease the reaction. The isotope which was bound to the receptor was isolated from the resultant by using Brandel Cell Harvester System with Whatman glass fiber GF/C. After washing the filter, the radioactivity of the filter was determined by using a liquid scintillation counter. Binding inhibition(%) of the test compound was calculated as follows:
Binding Inhibition(%)=[{(T-B)-(S-B)}/(T-B)]×100
wherein T is the radioactivity (cpm) of the reaction product untreated with the test compound, S is the radioactivity (cpm) of the reaction product treated with the test compound, and B is the radioactivity (cpm) of blank test.

[5] = tested on: unanesthetized dogs; experiment: Maximum blood pressure lowering effect in unanesthetized dogs at different amounts; assay type: in vivo, dog
Experimental: as §4, §5
10 mg/kg of furosemide was injected intramuscularly 18 hours (in case of intravenous injection, 2 hours) before the beginning of the test (administration of the test compound) to improve the activity of renin in blood plasma. After the injection of furosemide, neither food nor water was provided. The test compound was suspended in Tween 80 and administered in an amount of 20 mg/kg orally. The blood pressure and heart rate were measured up to 8 hours after the administration of each test compound.
The maximum blood pressure lowering effect of the present compounds and the control compounds were determined in different amounts of administration using the same method as (i) and the results are given in Table 4.

[6] = tested on: renal hypertensive rat; experiment: Blood pressure lowering effect in renal hypertension; assay type: in vivo, Sprague-Dawley rat; settings: Amount 3 mg; intravenous or oral (not specified)
Excerpt: as §1, §2, §3

[7] = tested on: renal hypertensive rats; experiment: Duration of action in renal hypertensive rats; assay type: in vivo, Sprague-Dawley rat; settings: 3 mg/kg oral
Excerpt: as §1, §2, §3
The compound of Example 1 and the Merck compound were tested using the hypertensive rats of test 2(i). 3 mg/kg of each compound was administered orally and blood pressure lowering effect with time was determined to measure the duration of action of the compounds.

[8] = tested on: furosemide-administered dogs; experiment: Duration of action in furosemide-administered dogs; assay type: in vivo, dog; settings: 0.3 mg oral
Experimental: as §4, §5, §6
The compound of Example 1 and the Merck compound were administered orally to the furosemide-administrated dogs as in test 3(i), and blood pressure lowering effect was measured with time.

CCCCc1nc2cc(-c3cccc[n+]3[O-])c(C)nc2n1Cc1ccc(-c2ccccc2-c2nn[nH]n2)cc1 [Example 3, 2-Butyl-5-methyl-6-(1-oxy-pyridin-2-yl)-3-[2'-(1H-tetrazol-5-yl)-biphenyl-4-ylmethyl]-3H-imidazo[4,5-b]pyridine]
Maximum Blood Pressure Lowering Effect ([1]; 1 mg/kg): -20%
stability against the enzymatic digestion ([2]; in contrast with the Merck compound): good stability against the enzymatic digestion
metabolite from the enzymatic digestion [2]: has no metabolite from the enzymatic digestion
Maximum Blood Pressure Lowering Effect ([3]; 0.5 hr): -16.2%
Maximum Blood Pressure Lowering Effect ([3]; 1 hr): -23.8%
Maximum Blood Pressure Lowering Effect ([3]; 2 hr): -30.0%
Maximum Blood Pressure Lowering Effect ([3]; 4 hr): -32.7%
Maximum Blood Pressure Lowering Effect ([3]; 6 hr): -35.5%
Maximum Blood Pressure Lowering Effect ([3]; 8 hr): -33.0%
Binding Inhibition [4]: 86.4%
Maximum Blood Pressure Lowering Effect ([5]; 0.1 mg/kg): -10%
Maximum Blood Pressure Lowering Effect ([5]; 0.3 mg/kg): -11%
Maximum Blood Pressure Lowering Effect ([5]; 1 mg/kg): -37%
Maximum Blood Pressure Lowering Effect [6]: -50%

CCc1nc2c(C)cc(C)nc2n1Cc1ccc(-c2ccccc2-c2nnn[nH]2)cc1 [Merck Compound, reference compound]
Maximum Blood Pressure Lowering Effect ([1]; 3 mg/kg): -40%
metabolite from the enzymatic digestion [2]: has a metabolite
Maximum Blood Pressure Lowering Effect ([7]; 0 min): 0%
Maximum Blood Pressure Lowering Effect ([7]; 10 min): -15%
Maximum Blood Pressure Lowering Effect ([7]; 20 min): -27%
Maximum Blood Pressure Lowering Effect ([7]; 30 min): -28%
Maximum Blood Pressure Lowering Effect ([7]; 60 min): -26%
Maximum Blood Pressure Lowering Effect ([7]; 90 min): -28%
Maximum Blood Pressure Lowering Effect ([7]; 120 min): -25%
Maximum Blood Pressure Lowering Effect ([7]; 240 min): -40%
Maximum Blood Pressure Lowering Effect ([7]; 360 min): -36%
Maximum Blood Pressure Lowering Effect ([7]; 1320 min): -35%
Maximum Blood Pressure Lowering Effect ([7]; 1440 min): -40%
Maximum Blood Pressure Lowering Effect ([8]; 0 min): 0.0%
Maximum Blood Pressure Lowering Effect ([8]; 10 min): -5.0%
Maximum Blood Pressure Lowering Effect ([8]; 20 min): -12.2%
Maximum Blood Pressure Lowering Effect ([8]; 30 min): -14.4%
Maximum Blood Pressure Lowering Effect ([8]; 60 min): -20.1%
Maximum Blood Pressure Lowering Effect ([8]; 90 min): -24.4%
Maximum Blood Pressure Lowering Effect ([8]; 120 min): -19.1%
Maximum Blood Pressure Lowering Effect ([8]; 150 min): -24.2%
Maximum Blood Pressure Lowering Effect ([8]; 180 min): -18.9%
Maximum Blood Pressure Lowering Effect ([8]; 210 min): -17.0%
Maximum Blood Pressure Lowering Effect ([8]; 240 min): -17.0%
Maximum Blood Pressure Lowering Effect ([8]; 270 min): -13.4%
Maximum Blood Pressure Lowering Effect ([8]; 300 min): -14.9%
Maximum Blood Pressure Lowering Effect ([8]; 330 min): -15.6%
Maximum Blood Pressure Lowering Effect ([8]; 360 min): -15.6%
Maximum Blood Pressure Lowering Effect ([8]; 390 min): -11.4%
Maximum Blood Pressure Lowering Effect ([8]; 420 min): -10.7%
Maximum Blood Pressure Lowering Effect ([8]; 450 min): -11.4%
Maximum Blood Pressure Lowering Effect ([8]; 480 min): -13.8%
time for which the maximum blood pressure lowering effect lasted after the administration ([8]; Table 6, dogs): 2 to 3 h
Maximum Blood Pressure Lowering Effect ([5]; 0.1 mg/kg): -20%
Maximum Blood Pressure Lowering Effect ([5]; 0.3 mg/kg): -24%
